According to patent US5710170A, “Tri-aryl ethane derivatives as PDE IV inhibitors” (Merck Frosst Canada, Inc., priority 1996, dated 1998):

Tested on: right atrial muscle
Assay: not given
Details: right atria; general statement; cited from earlier work

With `Cc1[nH]c(=O)c(C#N)cc1-c1ccncc1` [milrinone] as the molecule, how does the “direct chronotropic effects of known PDE inhibitors” value read?
Its value is “positive chronotropic and inotropic effects”.

Which “direct chronotropic effects of known PDE inhibitors” value does the source give for `COc1ccc(C2CNC(=O)C2)cc1OC1CCCC1` (stereo not shown) [rolipram] here?
The value was “do not have any direct effects”.

Tested on: not given
Assay: not given
Details: used in asthma as a bronchodilator; cited from earlier work

With `Cn1c(=O)c2[nH]cnc2n(C)c1=O` [theophylline] as the molecule, how does the cardiovascular changes read?
The cardiovascular changes was “significant cardiovascular changes such as tachycardia”.

Tested on: papillary muscle
Assay: not given
Details: general statement; cited from earlier work

With `Cc1[nH]c(=O)c(C#N)cc1-c1ccncc1` [milrinone] as the molecule, how does the “direct inotropic effects of known PDE inhibitors” value read?
Its value is “positive chronotropic and inotropic effects”.

For `COc1ccc(C2CNC(=O)C2)cc1OC1CCCC1` (stereo not shown) [rolipram], which “direct inotropic effects of known PDE inhibitors” value is on record?
Its value is “do not have any direct effects”.

Molecular target: T1, GST-Met 248 PDE IVa (GST fusion protein of the human recombinant phosphodiesterase IVa (met-248)) (Homo sapiens, UniProt P27815)
T1 construct: phosphodiesterase IVa (met-248); made in house; host or cells: Sf-9 insect cells (baculovirus)
T1 sequence (P27815 248-886 limits assumed): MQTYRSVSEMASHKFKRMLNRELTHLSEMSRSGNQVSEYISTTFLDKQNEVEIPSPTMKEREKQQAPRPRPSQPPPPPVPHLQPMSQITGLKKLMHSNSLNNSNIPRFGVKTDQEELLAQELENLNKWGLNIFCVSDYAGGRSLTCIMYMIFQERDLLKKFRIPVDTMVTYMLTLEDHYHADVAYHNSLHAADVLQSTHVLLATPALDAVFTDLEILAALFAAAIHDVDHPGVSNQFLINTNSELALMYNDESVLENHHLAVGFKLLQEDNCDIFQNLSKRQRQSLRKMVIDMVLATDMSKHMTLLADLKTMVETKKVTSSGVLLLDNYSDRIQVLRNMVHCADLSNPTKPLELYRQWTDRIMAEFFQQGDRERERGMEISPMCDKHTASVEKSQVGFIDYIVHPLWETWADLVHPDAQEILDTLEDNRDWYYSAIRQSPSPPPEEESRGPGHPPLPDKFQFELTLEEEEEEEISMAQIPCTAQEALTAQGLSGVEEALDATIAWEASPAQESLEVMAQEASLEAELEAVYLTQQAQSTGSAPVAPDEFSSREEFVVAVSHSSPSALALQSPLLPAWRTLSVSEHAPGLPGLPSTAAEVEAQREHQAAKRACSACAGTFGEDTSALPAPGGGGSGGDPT
Assay: SPA based PDE activity assay: inhibition of human recombinant PDE IVa (GST-Met 248)
Format: biochemical
Details: 100 nM cAMP; purified GST fusion protein, baculovirus/Sf-9 expression system
Description: SPA Based PDE Activity Assay Protocol
Compounds which inhibit the hydrolysis of cAMP to AMP by the type-IV cAMP-specific phosphodiesterases were screened in 96-well plate format as follows:
In a 96 well-plate at 30° C. was added the test compound (dissolved in 2 ul DMSO), 188 ml of substrate buffer containing [2,8-^3 H] adenosine 3',5'-cyclic phosphate (cAMP, 100 nM to 50 μM), 10 mM MgCl2, 1 mM EDTA, 50 mM Tris, pH 7.5. The reaction was initiated by the addition of […] of human recombinant PDE-IV (the amount was controlled so that ~10% product was formed in 10 min. at 30° C.). The reaction was stopped after 10 min. by the addition of 1 mg of PDE-SPA beads (Amersham). The product AMP generated was quantified on a Microbeta 96-well plate counter. The signal in the absence of enzyme was defined as the background. 100% activity was defined as the signal detected in the presence of enzyme and DMSO with the background subtracted. Percentage of inhibition was calculated accordingly. IC50 value was approximated with a non-linear regression fit of the standard 4-parameter/multiple binding sites equation from a ten point titration.
IC50 values shown in Table 4 were determined with 100 nM cAMP using the purified GST fusion protein of the human recombinant phosphodiesterase IVa (met-248) produced from a baculovims/Sf-9 expression system.

With `COc1ccc([C@H](Cc2ccncc2)c2ccc(C(O)(C(F)(F)F)C(F)(F)F)cc2)cc1OC1CCCC1` [Example 7, (R)-4-{2-(3-Cyclopentyloxy-4-methoxyphenyl)-2-[4-(1,1,1,3,3,3-hexafluoro-2-hydroxypropan-2-yl)phenyl]ethyl}pyridine] as the molecule, how does the IC50 read?
Its IC50 is 0.2 nM.

For `COc1ccc(C(Cc2ccncc2)c2ccc(S(=O)(=O)NC(=O)c3ccccc3C)cc2)cc1OC1CCCC1` (stereo not shown) [Example 8, N-(o-Toluoyl)-4-[1-(3-Cyclopentyloxy-4-methoxyphenyl)-2-(4-pyridyl)ethyl]benzenenesulfonamide], which IC50 is on record?
The IC50 was 0.7 nM.

With `COc1ccc([C@H](Cc2ccncc2)c2ccc(CC(=O)NS(=O)(=O)c3ccccc3)cc2)cc1OC1CCCC1` [Example 5, N-{(R)-4-[1-(3-Cyclopentyloxy-4-methoxyphenyl)-2-(4-pyridyl)ethyl]phenylacetyl}benzenesulfonamide] as the molecule, how does the IC50 read?
The IC50 was 1.5 nM.

Which IC50 does the source give for `COc1ccc([C@H](Cc2ccncc2)c2ccc(CC(=O)NS(=O)(=O)C(F)(F)F)cc2)cc1OC1CCCC1` [Example 6, N-{(R)-4-[1-(3-Cyclopentyloxy-4-methoxyphenyl)-2-(4-pyridyl)ethyl]phenylacetyl}trifluoromethanesulfonamide] here?
Its IC50 is 0.8 nM.

With `COc1ccc([C@H](Cc2ccncc2)c2ccc(C(=O)NS(=O)(=O)c3ccccc3)cc2)cc1OC1CCCC1` [Example 2, N-{(R)-4-[1-(3-Cyclopentyloxy-4-methoxyphenyl)-2-(4-pyridyl)ethyl]benzoyl}benzenesulfonamide] as the molecule, how does the IC50 read?
The IC50 was 0.5 nM.

For `COc1ccc([C@H](Cc2ccncc2)c2ccc(C(=O)NS(=O)(=O)C(F)(F)F)cc2)cc1OC1CCCC1` [Example 3, N-{(R)-4-[1-(3-Cyclopentyloxy-4-methoxyphenyl)-2-(4-pyridyl)ethyl]benzoyl}trifluoromethanesulfonamide], which IC50 is on record?
Its IC50 is 1 nM.

Which IC50 does the source give for `COc1ccc([C@H](Cc2ccncc2)c2ccc(C(=O)NS(C)(=O)=O)cc2)cc1OC1CCCC1` [Example 1, N-{(R)-4-[1-(3-Cyclopentyloxy-4-methoxyphenyl)-2-(4-pyridyl)ethyl]benzoyl}methanesulfonamide] here?
The IC50 was 4 nM.

Which IC50 does the source give for `COc1ccc([C@H](Cc2ccncc2)c2ccc(C(=O)NS(=O)(=O)c3ccccc3C)cc2)cc1OC1CCCC1` [Example 4, N-{(R)-4-[1-(3-Cyclopentyloxy-4-methoxyphenyl)-2-(4-pyridyl)ethyl]benzoyl}o-toluenesulfonamide] here?
The IC50 was 0.4 nM.
